Measurements as given in ChEMBL document CHEMBL1201861, “Genomics of Drug Sensitity in Cancer screening data, Wellcome Trust Sanger Institute”.

How the values were obtained:
Capan-2 = assay: cells; format: functional, cell-based; conditions: Homo sapiens;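 further: Capan-2 cell growth inhibition, read out with a viability assay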
Description: SANGER: Inhibition of human Capan-2 cell growth in a cell viability assay.

ChaGo-K-1 = assay: cells; format: functional, cell-based; conditions: Homo sapiens;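 further: growth inhibition of ChaGo-K-1 cells, read out with a cell viability assay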
Description: SANGER: Inhibition of human ChaGo-K-1 cell growth in a cell viability assay.

DMS-79 = assay: cells; format: functional, cell-based, Homo sapiens; conditions: Homo sapiens, DMS-79
Description: SANGER: Inhibition of human DMS-79 cell growth in a cell viability assay.

DoTc2-4510 = assay: cells; format: functional, cell-based; conditions: Homo sapiens
ECC10 = assay: cells; format: functional, cell-based; conditions: Homo sapiens;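 further: growth inhibition of ECC10 cells, read out by a cell viability assay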
Description: SANGER: Inhibition of human ECC10 cell growth in a cell viability assay.

EFM-19 = assay: cells; format: functional, cell-based; conditions: Homo sapiens;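 further: growth inhibition of human EFM-19 cells, measured in a cell viability assay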
Description: SANGER: Inhibition of human EFM-19 cell growth in a cell viability assay.

EFO-27 = assay: cells; format: functional, cell-based; conditions: Homo sapiens;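 further: growth inhibition of EFO-27 cells, read out with a cell viability assay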
Description: SANGER: Inhibition of human EFO-27 cell growth in a cell viability assay.

EW-22 = assay: cells; format: functional, cell-based; conditions: Homo sapiens;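 further: growth inhibition of the EW-22 cell line, measured with a cell viability readout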
Description: SANGER: Inhibition of human EW-22 cell growth in a cell viability assay.

G-361 = assay: cells; format: functional, cell-based; conditions: Homo sapiens
H-EMC-SS = assay: cells; format: functional, cell-based; conditions: Homo sapiens
Description: SANGER: Inhibition of human H-EMC-SS cell growth in a cell viability assay.

H9 = assay: cells; format: functional, cell-based; conditions: Homo sapiens
Description: SANGER: Inhibition of human H9 cell growth in a cell viability assay.

HCC1419 = assay: cells; format: functional, cell-based; conditions: Homo sapiens;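 further: growth inhibition of human HCC1419 cells, read out as cell viability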
Description: SANGER: Inhibition of human HCC1419 cell growth in a cell viability assay.

HCC 2998 = assay: cells; format: functional, cell-based; conditions: Homo sapiens;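 further: growth inhibition of human HCC2998 cells, measured with a cell viability read-out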
Description: SANGER: Inhibition of human HCC2998 cell growth in a cell viability assay.

HLE = assay: cells; format: functional, cell-based; conditions: Homo sapiens;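 further: growth inhibition of human HLE cells, read out by a cell viability assay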
Description: SANGER: Inhibition of human HLE cell growth in a cell viability assay.

HSC-4 = assay: cells; format: functional, cell-based; conditions: Homo sapiens;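 further: growth inhibition of human HSC-4 cells, read out with a cell viability assay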
Description: SANGER: Inhibition of human HSC-4 cell growth in a cell viability assay.

Kasumi 1 = assay: cells; format: functional, cell-based, Homo sapiens; conditions: Homo sapiens, Kasumi 1;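 further: growth inhibition of human Kasumi-1 cells, read out by a cell viability assay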
Description: SANGER: Inhibition of human KASUMI-1 cell growth in a cell viability assay.

KYSE-150 cell line = assay: cells; format: functional, cell-based; conditions: Homo sapiens;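 further: growth inhibition of human KYSE-150 cells, read out with a cell viability assay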
Description: SANGER: Inhibition of human KYSE-150 cell growth in a cell viability assay.

LU-135 = assay: cells; format: functional, cell-based; conditions: Homo sapiens
Description: SANGER: Inhibition of human LU-135 cell growth in a cell viability assay.

LU-99A = assay: cells; format: functional, cell-based; conditions: Homo sapiens;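 further: growth inhibition of LU-99A cells, read out with a cell viability assay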
Description: SANGER: Inhibition of human LU-99A cell growth in a cell viability assay.

MKN-1 = assay: cells; format: functional, cell-based; conditions: Homo sapiens;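 further: growth inhibition of human MKN1 cells, read out by a cell viability measurement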
Description: SANGER: Inhibition of human MKN1 cell growth in a cell viability assay.

NCI-H1437 = assay: cells; format: functional, cell-based; conditions: Homo sapiens;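 further: growth inhibition of human NCI-H1437 cells, read out by a cell viability assay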
Description: SANGER: Inhibition of human NCI-H1437 cell growth in a cell viability assay.

NCI-H1651 = assay: cells; format: functional, cell-based; conditions: Homo sapiens;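 further: Read-out is a cell viability assay, with IC50 expressing inhibition of NCI-H1651 cell growth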
Description: SANGER: Inhibition of human NCI-H1651 cell growth in a cell viability assay.

NCI-H1793 = assay: cells; format: functional, cell-based; conditions: Homo sapiens;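 further: cell growth inhibition, read out by a cell viability assay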
Description: SANGER: Inhibition of human NCI-H1793 cell growth in a cell viability assay.

NCI-H2009 = assay: cells; format: functional, cell-based; conditions: Homo sapiens;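 further: cell viability assay measuring inhibition of NCI-H2009 cell growth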
Description: SANGER: Inhibition of human NCI-H2009 cell growth in a cell viability assay.

NCI-H2030 = assay: cells; format: functional, cell-based; conditions: Homo sapiens;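 further: growth inhibition of human NCI-H2030 cells, read out by a cell viability assay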
Description: SANGER: Inhibition of human NCI-H2030 cell growth in a cell viability assay.

NCI-H2228 = assay: cells; format: functional, cell-based; conditions: Homo sapiens;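 further: growth inhibition of human NCI-H2228 cells, read out by a cell viability assay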
Description: SANGER: Inhibition of human NCI-H2228 cell growth in a cell viability assay.

OC-314 = assay: cells; format: functional, cell-based; conditions: Homo sapiens
Description: SANGER: Inhibition of human OC-314 cell growth in a cell viability assay.

OE19 = assay: cells; format: functional, cell-based; conditions: Homo sapiens;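 further: growth inhibition of OE19 cells, measured through a cell viability read-out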
Description: SANGER: Inhibition of human OE19 cell growth in a cell viability assay.

RPMI-7951 = assay: cells; format: functional, cell-based; conditions: Homo sapiens
Description: SANGER: Inhibition of human RPMI-7951 cell growth in a cell viability assay.

SW900 = assay: cells; format: functional, cell-based; conditions: Homo sapiens;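 further: IC50 is the concentration that inhibits SW900 cell growth, measured by a cell viability assay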
Description: SANGER: Inhibition of human SW900 cell growth in a cell viability assay.

BT-549 = assay: cells; format: functional, cell-based; conditions: Homo sapiens
Description: SANGER: Inhibition of human BT-549 cell growth in a cell viability assay.

C32 = assay: cells; format: functional, cell-based; conditions: Homo sapiens;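 further: cell viability assay, with IC50 reflecting inhibition of C32 cell growth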
Description: SANGER: Inhibition of human C32 cell growth in a cell viability assay.

TGBC11TKB = assay: cells; format: functional, cell-based; conditions: Homo sapiens;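 further: growth inhibition of human TGBC11TKB cells, measured by a cell viability assay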
Description: SANGER: Inhibition of human TGBC11TKB cell growth in a cell viability assay.

TI-73 = assay: cells; format: functional, cell-based; conditions: Homo sapiens;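 further: cell viability assay measuring how much compounds suppress growth of the cultured cell line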
Description: SANGER: Inhibition of human TI-73 cell growth in a cell viability assay.

U-118-MG = assay: cells; format: functional, cell-based; conditions: Homo sapiens
Description: SANGER: Inhibition of human U-118-MG cell growth in a cell viability assay.

UACC-893 = assay: cells; format: functional, cell-based; conditions: Homo sapiens
Description: SANGER: Inhibition of human UACC-893 cell growth in a cell viability assay.

YKG-1 = assay: cells; format: functional, cell-based; conditions: Homo sapiens;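 further: cell growth inhibition, read out with a viability assay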
Description: SANGER: Inhibition of human YKG-1 cell growth in a cell viability assay.

CHP-134 = assay: SANGER: Inhibition of human CHP-134 cell growth in a cell viability assay.; format: functional, cell-based

Row | SMILES | IC50 (Capan-2) [nM] | IC50 (ChaGo-K-1) [nM] | IC50 (DoTc2-4510) [nM] | IC50 (ECC10) [nM] | IC50 (EFM-19) [nM] | IC50 (EFO-27) [nM] | IC50 (EW-22) [nM] | IC50 (H-EMC-SS) [nM] | IC50 (H9) [nM] | IC50 (HCC1419) [nM] | IC50 (HCC 2998) [nM] | IC50 (HLE) [nM] | IC50 (KYSE-150 cell line) [nM] | IC50 (LU-135) [nM] | IC50 (LU-99A) [nM] | IC50 (NCI-H1437) [nM] | IC50 (NCI-H1651) [nM] | IC50 (NCI-H1793) [nM] | IC50 (NCI-H2228) [nM] | IC50 (OC-314) [nM] | other results
1 | CN(NC(=O)CC(=O)NN(C)C(=S)c1ccccc1)C(=S)c1ccccc1 [ELESCLOMOL] | > 200 | 5.4 | > 200 | > 200 | 82.5 | 7.72 | 74.7 | 3.68 | 58.1 | 19.6 | 111 | 9.93 | 95 | > 200 | > 200 | 87.7 | 82.9 | > 200 | 30.9 | 33.5 | IC50 (DMS-79): > 200 nM; IC50 (G-361): 27.5 nM; IC50 (HSC-4): 4.8 nM; IC50 (Kasumi 1): > 200 nM; IC50 (MKN-1): 26 nM; IC50 (NCI-H2009): > 200 nM; IC50 (NCI-H2030): 26.4 nM; IC50 (OE19): > 200 nM; IC50 (RPMI-7951): 36.6 nM; IC50 (SW900): 62.1 nM; IC50 (BT-549): 15.8 nM; IC50 (C32): 26.3 nM; IC50 (TGBC11TKB): > 200 nM; IC50 (TI-73): 15.2 nM; IC50 (U-118-MG): > 200 nM; IC50 (UACC-893): > 200 nM; IC50 (YKG-1): 12.6 nM
2 | CC1(C)CCC(c2ccc(Cl)cc2)=C(CN2CCN(c3ccc(C(=O)NS(=O)(=O)c4ccc(N[C@H](CCN5CCOCC5)CSc5ccccc5)c(S(=O)(=O)C(F)(F)F)c4)cc3)CC2)C1 [NAVITOCLAX] | > 2000 | > 2000 | > 2000 | 37.9 | > 2000 | > 2000 | 467 | > 2000 | > 2000 | > 2000 | 1070 | > 2000 | > 2000 | 186 | > 2000 | > 2000 | > 2000 | > 2000 | > 2000 | > 2000 | IC50 (MKN-1): > 2000 nM; IC50 (NCI-H2030): > 2000 nM; IC50 (OE19): > 2000 nM; IC50 (RPMI-7951): > 2000 nM; IC50 (SW900): > 2000 nM; IC50 (BT-549): > 2000 nM; IC50 (C32): 1190 nM; IC50 (TGBC11TKB): > 2000 nM; IC50 (TI-73): > 2000 nM; IC50 (U-118-MG): > 2000 nM; IC50 (UACC-893): > 2000 nM; IC50 (YKG-1): > 2000 nM; IC50 (CHP-134): 163 nM
3 | O=C1NC(=O)c2c1c(-c1ccccc1Cl)cc1[nH]c3ccc(O)cc3c21 | > 2000 | > 2000 | > 2000 | 1410 | > 2000 | > 2000 | > 2000 | > 2000 | 832 | > 2000 | > 2000 | > 2000 | > 2000 | > 2000 | > 2000 | > 2000 | > 2000 | > 2000 | > 2000 | > 2000 | IC50 (MKN-1): > 2000 nM; IC50 (NCI-H2030): 1290 nM; IC50 (OE19): > 2000 nM; IC50 (RPMI-7951): > 2000 nM; IC50 (SW900): > 2000 nM; IC50 (BT-549): > 2000 nM; IC50 (C32): 1530 nM; IC50 (TGBC11TKB): > 2000 nM; IC50 (TI-73): > 2000 nM; IC50 (U-118-MG): > 2000 nM; IC50 (UACC-893): > 2000 nM; IC50 (YKG-1): > 2000 nM; IC50 (CHP-134): > 2000 nM
4 | CN(C)CCOc1ccc(-c2nc(-c3ccncc3)c(-c3ccc4c(c3)CC/C4=N\O)[nH]2)cc1 [SB590885] | > 5000 | > 5000 | > 5000 | > 5000 | > 5000 | > 5000 | > 5000 | 351 | 401 | > 5000 | > 5000 | > 5000 | > 5000 | > 5000 | > 5000 | > 5000 | > 5000 | > 5000 | > 5000 | > 5000 | IC50 (NCI-H2030): > 5000 nM; IC50 (OE19): > 5000 nM; IC50 (RPMI-7951): > 5000 nM; IC50 (SW900): > 5000 nM; IC50 (BT-549): > 5000 nM; IC50 (C32): 99.6 nM; IC50 (TGBC11TKB): > 5000 nM; IC50 (TI-73): > 5000 nM; IC50 (U-118-MG): > 5000 nM; IC50 (YKG-1): > 5000 nM; IC50 (CHP-134): > 5000 nM
5 | NC(=O)Nc1cc(-c2cccc(F)c2)sc1C(=O)N[C@H]1CCCNC1 [AZD-7762] | > 2000 | 325 | 782 | > 2000 | 1480 | 430 | 584 | 284 | 122 | > 2000 | 317 | > 2000 | > 2000 | > 2000 | > 2000 | > 2000 | 1090 | 1610 | 1290 | 78.1 | IC50 (DMS-79): > 2000 nM; IC50 (G-361): 387 nM; IC50 (HSC-4): 106 nM; IC50 (Kasumi 1): < 7.81 nM; IC50 (MKN-1): 350 nM; IC50 (NCI-H2009): > 2000 nM; IC50 (NCI-H2030): 1020 nM; IC50 (OE19): > 2000 nM; IC50 (RPMI-7951): 231 nM; IC50 (SW900): 1120 nM; IC50 (BT-549): 1270 nM; IC50 (C32): 347 nM; IC50 (TGBC11TKB): 111 nM; IC50 (TI-73): 209 nM; IC50 (U-118-MG): > 2000 nM; IC50 (UACC-893): > 2000 nM; IC50 (YKG-1): 1580 nM
6 | NC1(c2ccc(-c3nc4ccn5c(=O)[nH]nc5c4cc3-c3ccccc3)cc2)CCC1 [MK-2206] | > 4000 | > 4000 | > 4000 | 3940 | 440 | > 4000 | > 4000 | 499 | 389 | 489 | > 4000 | > 4000 | > 4000 | > 4000 | > 4000 | > 4000 | > 4000 | > 4000 | 2320 | 2150 | IC50 (OE19): > 4000 nM; IC50 (RPMI-7951): > 4000 nM; IC50 (BT-549): > 4000 nM; IC50 (C32): > 4000 nM; IC50 (TGBC11TKB): > 4000 nM; IC50 (TI-73): > 4000 nM; IC50 (U-118-MG): > 4000 nM; IC50 (YKG-1): > 4000 nM; IC50 (CHP-134): > 4000 nM
